Results from PubChem BioAssay (NCI).
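Five compound concentrations were applied to cells in 96-well plates for 48 hours; endpoints were derived by simple linear interpolation of the resulting dose-response curve. The concentration for 50% growth inhibition is given as GI50. TGI is the concentration that stops growth completely.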

Assays:
Test in all cases: DTP human tumour cell line panel, 48 h
EKVX NSCLC = tested on: EKVX NSCLC
BT-549 breast = tested on: BT-549 breast
HCT-15 colon = tested on: HCT-15 colon
SK-MEL-28 melanoma = tested on: SK-MEL-28 melanoma
SK-MEL-2 melanoma = tested on: SK-MEL-2 melanoma
RPMI-8226 leukemia = tested on: RPMI-8226 leukemia
MALME-3M melanoma = tested on: MALME-3M melanoma
A549 NSCLC = tested on: A549 NSCLC
SNB-19 CNS = tested on: SNB-19 CNS
COLO 205 colon = tested on: COLO 205 colon
HOP-92 NSCLC = tested on: HOP-92 NSCLC
U251 CNS = tested on: U251 CNS
HT29 colon = tested on: HT29 colon
LOX IMVI melanoma = tested on: LOX IMVI melanoma
OVCAR-8 ovarian = tested on: OVCAR-8 ovarian
HL-60(TB) leukemia = tested on: HL-60(TB) leukemia
HOP-62 NSCLC = tested on: HOP-62 NSCLC
MDA-MB-231 breast = tested on: MDA-MB-231 breast
OVCAR-4 ovarian = tested on: OVCAR-4 ovarian
ACHN renal = tested on: ACHN renal
786-0 renal = tested on: 786-0 renal
NCI-H460 lung = tested on: NCI-H460 lung
SNB-75 CNS = tested on: SNB-75 CNS
SR leukemia = tested on: SR leukemia
NCI/ADR-RES ovarian = tested on: NCI/ADR-RES ovarian
OVCAR-3 ovarian = tested on: OVCAR-3 ovarian
SN12C renal = tested on: SN12C renal
MCF7 breast = tested on: MCF7 breast
CCRF-CEM leukemia = tested on: CCRF-CEM leukemia
KM12 colon = tested on: KM12 colon
MDA-MB-435 = tested on: MDA-MB-435
MOLT-4 leukemia = tested on: MOLT-4 leukemia
T-47D breast = tested on: T-47D breast
SW-620 colon = tested on: SW-620 colon
RXF 393 renal = tested on: RXF 393 renal
NCI-H23 lung = tested on: NCI-H23 lung
SF-539 CNS = tested on: SF-539 CNS
MDA-MB-468 breast = tested on: MDA-MB-468 breast
UACC-62 melanoma = tested on: UACC-62 melanoma
HS 578T breast = tested on: HS 578T breast
SF-295 CNS = tested on: SF-295 CNS
NCI-H226 lung = tested on: NCI-H226 lung
UO-31 renal = tested on: UO-31 renal
HCC-2998 colon = tested on: HCC-2998 colon
K-562 leukemia = tested on: K-562 leukemia
OVCAR-5 ovarian = tested on: OVCAR-5 ovarian
NCI-H522 lung = tested on: NCI-H522 lung
A498 renal = tested on: A498 renal
TK-10 renal = tested on: TK-10 renal
M14 melanoma = tested on: M14 melanoma
HCT-116 colon = tested on: HCT-116 colon
IGROV1 ovarian = tested on: IGROV1 ovarian
CAKI-1 renal = tested on: CAKI-1 renal
SF-268 CNS = tested on: SF-268 CNS
PC-3 prostate = tested on: PC-3 prostate
SK-OV-3 ovarian = tested on: SK-OV-3 ovarian
SK-MEL-5 melanoma = tested on: SK-MEL-5 melanoma
UACC-257 melanoma = tested on: UACC-257 melanoma
DU-145 prostate = tested on: DU-145 prostate

## CN(C)c1ccc(/C=C/c2n(Cc3ccc4ccccc4c3)c3ccccc3[n+]2Cc2ccc3ccccc3c2)cc1
EKVX NSCLC
  GI50: 252 nM
  TGI: 905 nM
BT-549 breast
  GI50: 187 nM
  TGI: 809 nM
HCT-15 colon
  GI50: 458 nM
  TGI: 1740 nM
SK-MEL-28 melanoma
  GI50: 491 nM
  TGI: 1710 nM
SK-MEL-2 melanoma
  GI50: 271 nM
  TGI: 770 nM
RPMI-8226 leukemia
  GI50: 237 nM
  TGI: 1130 nM
MALME-3M melanoma
  GI50: 249 nM
  TGI: 740 nM
A549 NSCLC
  GI50: 317 nM
  TGI: 1520 nM
SNB-19 CNS
  GI50: 296 nM
  TGI: 1190 nM
COLO 205 colon
  GI50: 211 nM
  TGI: 434 nM
HOP-92 NSCLC
  GI50: 162 nM
  TGI: 600 nM
U251 CNS
  GI50: 166 nM
  TGI: 1270 nM
HT29 colon
  GI50: 235 nM
  TGI: 1340 nM
LOX IMVI melanoma
  GI50: 269 nM
  TGI: 999 nM
OVCAR-8 ovarian
  GI50: 312 nM
  TGI: 1350 nM
HL-60(TB) leukemia
  GI50: 228 nM
  TGI: 795 nM
HOP-62 NSCLC
  GI50: 351 nM
  TGI: 1410 nM
MDA-MB-231 breast
  GI50: 292 nM
  TGI: 998 nM
OVCAR-4 ovarian
  GI50: 342 nM
  TGI: 1650 nM
ACHN renal
  GI50: 326 nM
  TGI: 1210 nM
786-0 renal
  GI50: 287 nM
  TGI: 1440 nM
NCI-H460 lung
  GI50: 260 nM
  TGI: 1130 nM
SNB-75 CNS
  GI50: 240 nM
  TGI: 1140 nM
SR leukemia
  GI50: 399 nM
  TGI: 2300 nM
NCI/ADR-RES ovarian
  GI50: 1320 nM
  TGI: 3460 nM
OVCAR-3 ovarian
  GI50: 267 nM
  TGI: 1250 nM
SN12C renal
  GI50: 286 nM
  TGI: 1070 nM
MCF7 breast
  GI50: 281 nM
  TGI: 1100 nM
CCRF-CEM leukemia
  GI50: 315 nM
  TGI: 1410 nM
KM12 colon
  GI50: 315 nM
  TGI: 1300 nM
MDA-MB-435
  GI50: 338 nM
  TGI: 1240 nM
MOLT-4 leukemia
  GI50: 303 nM
  TGI: 1660 nM
T-47D breast
  GI50: 294 nM
  TGI: 1500 nM
SW-620 colon
  GI50: 319 nM
  TGI: 1310 nM
RXF 393 renal
  GI50: 231 nM
  TGI: 1020 nM
NCI-H23 lung
  GI50: 250 nM
  TGI: 752 nM
SF-539 CNS
  GI50: 346 nM
  TGI: 1330 nM
MDA-MB-468 breast
  GI50: 165 nM
  TGI: 731 nM
UACC-62 melanoma
  GI50: 281 nM
  TGI: 1020 nM
HS 578T breast
  GI50: 270 nM
  TGI: 1420 nM
SF-295 CNS
  GI50: 266 nM
  TGI: 996 nM
NCI-H226 lung
  GI50: 257 nM
  TGI: 1010 nM
UO-31 renal
  GI50: 530 nM
  TGI: 1840 nM
HCC-2998 colon
  GI50: 325 nM
  TGI: 1330 nM
K-562 leukemia
  GI50: 228 nM
  TGI: > 22900 nM
OVCAR-5 ovarian
  GI50: 360 nM
  TGI: 1410 nM
NCI-H522 lung
  GI50: 246 nM
  TGI: 737 nM
A498 renal
  GI50: 269 nM
  TGI: 1150 nM
TK-10 renal
  GI50: 416 nM
  TGI: 1680 nM
M14 melanoma
  GI50: 369 nM
  TGI: 1530 nM
HCT-116 colon
  GI50: 218 nM
  TGI: 1300 nM
IGROV1 ovarian
  GI50: 382 nM
  TGI: 1530 nM
CAKI-1 renal
  GI50: 331 nM
  TGI: 1310 nM
SF-268 CNS
  GI50: 383 nM
  TGI: 1630 nM
PC-3 prostate
  GI50: 250 nM
  TGI: 1250 nM
SK-OV-3 ovarian
  GI50: 280 nM
  TGI: 1090 nM
SK-MEL-5 melanoma
  GI50: 181 nM
  TGI: 346 nM
UACC-257 melanoma
  GI50: 265 nM
  TGI: 919 nM
DU-145 prostate
  GI50: 354 nM
  TGI: 1420 nM

## CC1(C)CC[C@]2(C(=O)O)CC[C@]3(C)C(=CCC4[C@@]5(C)C[C@@H](O)[C@@H]6OC(c7ccccc7F)OC[C@@]6(C)C5CC[C@]43C)C2C1 (stereo partly specified)
EKVX NSCLC
  GI50: 3160 nM
  TGI: 14500 nM
BT-549 breast
  GI50: 2840 nM
  TGI: 11300 nM
HCT-15 colon
  GI50: 2140 nM
  TGI: 10900 nM
SK-MEL-28 melanoma
  GI50: 5960 nM
  TGI: 18400 nM
SK-MEL-2 melanoma
  GI50: 4830 nM
  TGI: 20000 nM
RPMI-8226 leukemia
  GI50: 2090 nM
  TGI: 16100 nM
MALME-3M melanoma
  GI50: 5080 nM
  TGI: 17900 nM
A549 NSCLC
  GI50: 1620 nM
  TGI: 12300 nM
SNB-19 CNS
  GI50: 3750 nM
  TGI: 15800 nM
COLO 205 colon
  GI50: 2730 nM
  TGI: 8520 nM
HOP-92 NSCLC
  GI50: 2650 nM
  TGI: 11900 nM
U251 CNS
  GI50: 2630 nM
  TGI: 12900 nM
HT29 colon
  GI50: 3600 nM
  TGI: 17200 nM
LOX IMVI melanoma
  GI50: 3490 nM
  TGI: 14200 nM
OVCAR-8 ovarian
  GI50: 3410 nM
  TGI: 15600 nM
HL-60(TB) leukemia
  GI50: 2670 nM
  TGI: 9820 nM
HOP-62 NSCLC
  GI50: 3610 nM
  TGI: 15000 nM
MDA-MB-231 breast
  GI50: 9030 nM
  TGI: 21300 nM
OVCAR-4 ovarian
  GI50: 5190 nM
  TGI: 19400 nM
ACHN renal
  GI50: 2830 nM
  TGI: 12300 nM
786-0 renal
  GI50: 4400 nM
  TGI: 16000 nM
NCI-H460 lung
  GI50: 3670 nM
  TGI: 14100 nM
SNB-75 CNS
  GI50: 2770 nM
  TGI: 15000 nM
SR leukemia
  GI50: 3290 nM
  TGI: 21900 nM
NCI/ADR-RES ovarian
  GI50: 3110 nM
  TGI: 14500 nM
OVCAR-3 ovarian
  GI50: 3230 nM
  TGI: 13100 nM
SN12C renal
  GI50: 3570 nM
  TGI: 15700 nM
MCF7 breast
  GI50: 3420 nM
  TGI: 14600 nM
CCRF-CEM leukemia
  GI50: 2530 nM
  TGI: 12600 nM
KM12 colon
  GI50: 3700 nM
  TGI: 15100 nM
MDA-MB-435
  GI50: 5580 nM
  TGI: 18600 nM
MOLT-4 leukemia
  GI50: 2090 nM
  TGI: 12000 nM
T-47D breast
  GI50: 6640 nM
  TGI: 24700 nM
SW-620 colon
  GI50: 4340 nM
  TGI: 16400 nM
RXF 393 renal
  GI50: 2540 nM
  TGI: 7920 nM
NCI-H23 lung
  GI50: 3970 nM
  TGI: 15700 nM
SF-539 CNS
  GI50: 3650 nM
  TGI: 13000 nM
MDA-MB-468 breast
  GI50: 3370 nM
  TGI: 14000 nM
UACC-62 melanoma
  GI50: 5020 nM
  TGI: 18000 nM
HS 578T breast
  GI50: 3500 nM
  TGI: 16200 nM
SF-295 CNS
  GI50: 2720 nM
  TGI: 13000 nM
NCI-H226 lung
  GI50: 3300 nM
  TGI: 15100 nM
UO-31 renal
  GI50: 2530 nM
  TGI: 13500 nM
HCC-2998 colon
  GI50: 3490 nM
  TGI: 14100 nM
K-562 leukemia
  GI50: 2660 nM
  TGI: 84200 nM
OVCAR-5 ovarian
  GI50: 9040 nM
  TGI: 21100 nM
NCI-H522 lung
  GI50: 3790 nM
  TGI: 16800 nM
A498 renal
  GI50: 7090 nM
  TGI: 20200 nM
TK-10 renal
  GI50: 6030 nM
  TGI: 19800 nM
M14 melanoma
  GI50: 6640 nM
  TGI: 20600 nM
HCT-116 colon
  GI50: 2750 nM
  TGI: 11700 nM
IGROV1 ovarian
  GI50: 5540 nM
  TGI: 18100 nM
CAKI-1 renal
  GI50: 3800 nM
  TGI: 14400 nM
SF-268 CNS
  GI50: 5040 nM
  TGI: 20700 nM
PC-3 prostate
  GI50: 3210 nM
  TGI: 18300 nM
SK-OV-3 ovarian
  GI50: 4510 nM
  TGI: 17400 nM
SK-MEL-5 melanoma
  GI50: 3390 nM
  TGI: 12700 nM
UACC-257 melanoma
  GI50: 4680 nM
  TGI: 18200 nM
DU-145 prostate
  GI50: 6270 nM
  TGI: 19800 nM
